Read-outs that look alike come from different tables or passages of the source.
How the values were obtained:
[1] = target: T1, human M2 receptor (Homo sapiens, UniProt P08172); type: cell-based; settings: α >1 = positive cooperativity
T1 sequence (P08172 1-466): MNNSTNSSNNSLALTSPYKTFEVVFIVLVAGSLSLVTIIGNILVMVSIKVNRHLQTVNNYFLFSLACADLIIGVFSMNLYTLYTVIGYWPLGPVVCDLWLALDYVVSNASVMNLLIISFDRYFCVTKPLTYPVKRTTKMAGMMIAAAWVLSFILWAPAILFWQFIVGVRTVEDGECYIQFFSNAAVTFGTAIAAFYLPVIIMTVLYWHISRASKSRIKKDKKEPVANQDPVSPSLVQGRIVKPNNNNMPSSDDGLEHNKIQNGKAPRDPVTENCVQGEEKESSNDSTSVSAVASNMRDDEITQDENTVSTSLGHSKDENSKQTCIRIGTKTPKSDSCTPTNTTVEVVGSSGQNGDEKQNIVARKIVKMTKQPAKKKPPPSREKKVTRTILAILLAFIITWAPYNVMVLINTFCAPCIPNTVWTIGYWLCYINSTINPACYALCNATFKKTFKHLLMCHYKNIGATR

[2] = target: T1, human M2 receptor; settings: for Emax: read-out: Efficiency, boosting of the acetylcholine effect at EC20 acetylcholine concentration; for Efficiency: boosting of the acetylcholine effect at EC20 acetylcholine concentration
[3] = shift in the acetylcholine dose-response curve (Allosteric EC50 shift, GraphPad PRISM)
[4] = Receptor activity EC50, M2-GIRK1/4 activation test, acetylcholine at EC20, allosteric potency, in some cases mean values from two or more determinations
[5] = shift of acetylcholine dose-response curve (Allosteric EC50 shift)
[6] = Receptor activity EC50, allosteric potency at EC20 acetylcholine, M2-GIRK1/4 reporter cells, in some cases mean of two or more determinations

Row | Compound | Cooperativity (alpha factor) [1, 3] | EC50 [2, 4] | Cooperativity (alpha factor) [1, 5] | EC50 [2, 6] | Emax ([2]; M2-GIRK1/4 reporter cells) | Efficiency ([2]; M2-GIRK1/4 reporter cells)
1 | CC(NC(=O)c1cn(-c2ccc(F)cc2F)c2nc(N3C[C@@H](O)CC3=O)ccc2c1=O)c1c(F)cccc1F (single isomer, unassigned) [Example 216] | 35 | 89 nM |  |  |  | 
2 | CC[C@H](NC(=O)c1cn(-c2ccc(F)cc2F)c2nc(N3CCC(O)C3)ccc2c1=O)C(F)(F)F (single isomer, unassigned) [Example 219] | 33 | 106 nM |  |  |  | 
3 | CC[C@H](NC(=O)c1cn(-c2ccc(F)cc2F)c2nc(N3CCC(O)C3)ccc2c1=O)C(F)(F)F (single isomer, unassigned) [Example 220] | 29 | 116 nM |  |  |  | 
4 | CC[C@@H](NC(=O)c1cn(-c2ccc(F)cc2F)c2nc(N3CC4CNC(=O)C4C3)ccc2c1=O)C(F)(F)F (single isomer, unassigned) [Example 223] | 30 | 84 nM |  |  |  | 
5 | O=C(NC(c1c(F)cccc1F)C(F)(F)F)c1cn(-c2ccc(F)cc2F)c2nc(N3CC[C@H](F)C3)ccc2c1=O (single isomer, unassigned) [Example 242] | 10 | 90 nM |  |  |  | 
6 | O=C(NC(c1c(F)cccc1F)C(F)(F)F)c1cn(-c2ccc(F)cc2F)c2nc(N3C[C@@H](O)CC3=O)ccc2c1=O (single isomer, unassigned) [Example 245] | 42 | 112 nM |  |  |  | 
7 | O=C(NC(c1c(F)cccc1F)C(F)(F)F)c1cn(-c2ccc(F)cc2F)c2nc(N3C[C@@H](O)CC3=O)ccc2c1=O (single isomer, unassigned) [Example 246] | 53 | 23 nM |  |  |  | 
8 | CC[C@@H](NC(=O)c1cn(-c2c(F)cc(F)cc2F)c2nc(N3CCC(O)C3=O)ccc2c1=O)C(F)(F)F (single isomer, unassigned) [Example 281] | 44 | 34 nM |  |  |  | 
9 | CC[C@@H](NC(=O)c1cn(-c2c(F)cccc2F)c2nc(N3CCC(O)C3=O)ccc2c1=O)C(F)(F)F (single isomer, unassigned) [Example 294] | 31 | 65 nM |  |  |  | 
10 | CC[C@@H](NC(=O)c1cn(-c2c(F)cccc2F)c2nc(N3CC4CC4(O)C3)ccc2c1=O)C(F)(F)F (single isomer, unassigned) [Example 305] | 23 | 12 nM |  |  |  | 
11 | CC[C@@H](NC(=O)c1cn(-c2c(F)cccc2F)c2nc(N3CC4CC4(O)C3)ccc2c1=O)C(F)(F)F (single isomer, unassigned) [Example 306] | 21 | 52 nM |  |  |  | 
12 | CC[C@@H](NC(=O)c1cn(-c2ccc(F)cc2F)c2nc(N3CC4CC4(O)C3)ccc2c1=O)C(F)(F)F (single isomer, unassigned) [Example 314] | 24 | 27 nM |  |  |  | 
13 | CC[C@@H](NC(=O)c1cn(-c2ccc(F)cc2F)c2nc(N3CC4CC4(O)C3)ccc2c1=O)C(F)(F)F (single isomer, unassigned) [Example 315] | 25 | 38 nM |  |  |  | 
14 | CC[C@H](NC(=O)c1cn(-c2c(F)cc(F)cc2Cl)c2nc(N3CCC(C)C3=O)ccc2c1=O)C(F)(F)F (single isomer, unassigned) [Example 425] |  |  | 9 | 5 nM |  | 90.5%
15 | CC[C@@H](NC(=O)c1cn(-c2ccc(F)cc2F)c2nc(N3CC(C)NC3=O)ccc2c1=O)C(F)(F)F (single isomer, unassigned) [Example 432] |  |  | 26 | 40 nM | 94% | 
16 | O=C(NC(CC(F)(F)F)C1CC1)c1cn(-c2c(F)cc(F)cc2F)c2nc(N3C[C@@H](O)[C@H](O)C3)ccc2c1=O (single isomer, unassigned) [Example 439] |  |  | 35 | 20 nM | 100% | 
17 | CC[C@@H](COC(F)(F)F)NC(=O)c1cn(-c2c(F)cc(F)cc2F)c2nc(N3C[C@@H](C)NC3=O)ccc2c1=O (single isomer, unassigned) [Example 454] |  |  | 28 | 7 nM | 100% | 
18 | CC[C@@H](COC(F)(F)F)NC(=O)c1cn(-c2c(F)cc(F)cc2F)c2nc(N3C[C@@H](C)NC3=O)ccc2c1=O (single isomer, unassigned) [Example 455] |  |  | 17 | 10 nM |  | 100.0%
19 | O=C(NC(C1CCC1)C(F)(F)F)c1cn(-c2c(F)cc(F)cc2F)c2nc(N3C[C@@H](O)CC3=O)ccc2c1=O (single isomer, unassigned) [Example 506] |  |  | 57 | 7 nM | 100% | 
20 | O=C(NC(C1CCC1)C(F)(F)F)c1cn(-c2c(F)cc(F)cc2F)c2nc(N3C[C@@H](O)CC3=O)ccc2c1=O (single isomer, unassigned) [Example 507] |  |  | 37 | 6 nM |  | 98.0%
21 | CC(NC(=O)c1cn(-c2c(F)cc(F)cc2F)c2nc(N3C[C@@H](O)CC3=O)ccc2c1=O)(C1CC1)C(F)(F)F (single isomer, unassigned) [Example 510] |  |  | 46 | 6 nM |  | 94.0%

Next, values leading:

Row | Cooperativity (alpha factor) [1, 3] | EC50 [2, 4] | Cooperativity (alpha factor) [1, 5] | EC50 [2, 6] | Emax ([2]; M2-GIRK1/4 reporter cells) | Efficiency ([2]; M2-GIRK1/4 reporter cells) | Compound
22 | 33 | 363 nM |  |  |  |  | CC[C@@H](NC(=O)c1cn(-c2ccc(F)cc2F)c2nc(N3CCC(O)C3=O)ccc2c1=O)C(F)(F)F (single isomer, unassigned) [Example 225]
23 | 35 | 83 nM |  |  |  |  | CC[C@@H](NC(=O)c1cn(-c2ccc(F)cc2F)c2nc(N3CCC(O)C3=O)ccc2c1=O)C(F)(F)F (single isomer, unassigned) [Example 226]
24 | 12 | 51 nM |  |  |  |  | CC(COC(F)(F)F)NC(=O)c1cn(-c2ccc(F)cc2F)c2nc(N3CC[C@H](F)C3)ccc2c1=O (single isomer, unassigned) [Example 228]
25 | 13 | 52 nM |  |  |  |  | CC(COC(F)(F)F)NC(=O)c1cn(-c2ccc(F)cc2F)c2nc(N3CC[C@H](F)C3)ccc2c1=O (single isomer, unassigned) [Example 229]
26 | 33 | 15 nM |  |  |  |  | O=C(NC(c1c(F)cccc1F)C(F)(F)F)c1cn(-c2ccc(F)cc2F)c2nc(N3CC[C@H](F)C3)ccc2c1=O (single isomer, unassigned) [Example 243]
27 | 27 | 101 nM |  |  |  |  | O=C(NC(c1c(F)cccc1F)C(F)(F)F)c1cn(-c2ccc(F)cc2F)c2nc(N3CCCC(O)C3=O)ccc2c1=O (single isomer, unassigned) [Example 250, 1-(2,4-Difluorophenyl)-N-[1-(2,6-difluorophenyl)-2,2,2-trifluoroethyl]-7-[3-hydroxy-2-oxopiperidin-1-yl]-4-oxo-1,4-dihydro-1,8-naphthyridine-3-carboxamide]
28 | 31 | 83 nM |  |  |  |  | O=C(NC(c1c(F)cccc1F)C(F)(F)F)c1cn(-c2ccc(F)cc2F)c2nc(N3CCC(O)CC3=O)ccc2c1=O (single isomer, unassigned) [Example 255, 1-(2,4-Difluorophenyl)-N-[1-(2,6-difluorophenyl)-2,2,2-trifluoroethyl]-7-[4-hydroxy-2-oxopiperidin-1-yl]-4-oxo-1,4-dihydro-1,8-naphthyridine-3-carboxamide]
29 | 12 | 40 nM |  |  |  |  | O=C(NC(c1ccccc1Cl)C(F)(F)F)c1cn(-c2ccccc2F)c2nc(N3CCC(O)C3=O)ccc2c1=O (single isomer, unassigned) [Example 288]
30 |  |  | 11 | 40 nM | 96.5% |  | CC[C@H](NC(=O)c1cn(-c2c(F)cc(F)cc2Cl)c2nc(N3C[C@@H](O)CC3=O)ccc2c1=O)C(F)(F)F (single isomer, unassigned) [Example 399]
31 |  |  | 34 | 16 nM |  | 98.0% | CCC(COC(F)(F)F)NC(=O)c1cn(-c2c(F)cc(F)cc2F)c2nc(N3C[C@@H](O)CC3=O)ccc2c1=O (single isomer, unassigned) [Example 412]
32 |  |  | 15 | 7 nM |  | 99.0% | CC[C@H](NC(=O)c1cn(-c2c(F)cc(F)cc2Cl)c2nc(N3CCC(C)C3=O)ccc2c1=O)C(F)(F)F (single isomer, unassigned) [Example 424]
33 |  |  | 22 | 19 nM |  | 97.0% | CCC1CCN(c2ccc3c(=O)c(C(=O)N[C@@H](C4CC4)C(F)(F)F)cn(-c4c(F)cc(F)cc4F)c3n2)C(=O)N1 (single isomer, unassigned) [Example 448, N-[(1 S)-1-Cyclopropyl-2,2,2-trifluoroethyl]-7-[4-ethyl-2-oxotetrahydropyrimidin-1(2H)-yl]-4-oxo-1-(2,4,6-trifluorophenyl)-1,4-dihydro-1,8-naphthyridine-3-carboxamide]
